For one compound, EC50 results are on record in PMC2928581 (Nature communications, 2010).

In the assay the target is TRPML1 (ML1) (Mus musculus, UniProt Q99J21). The assay can be described thus: whole-endolysosome patch clamp, current activation. Format: biochemical.
Chain of TRPML1 (ML1) (Q99J21 whole entry): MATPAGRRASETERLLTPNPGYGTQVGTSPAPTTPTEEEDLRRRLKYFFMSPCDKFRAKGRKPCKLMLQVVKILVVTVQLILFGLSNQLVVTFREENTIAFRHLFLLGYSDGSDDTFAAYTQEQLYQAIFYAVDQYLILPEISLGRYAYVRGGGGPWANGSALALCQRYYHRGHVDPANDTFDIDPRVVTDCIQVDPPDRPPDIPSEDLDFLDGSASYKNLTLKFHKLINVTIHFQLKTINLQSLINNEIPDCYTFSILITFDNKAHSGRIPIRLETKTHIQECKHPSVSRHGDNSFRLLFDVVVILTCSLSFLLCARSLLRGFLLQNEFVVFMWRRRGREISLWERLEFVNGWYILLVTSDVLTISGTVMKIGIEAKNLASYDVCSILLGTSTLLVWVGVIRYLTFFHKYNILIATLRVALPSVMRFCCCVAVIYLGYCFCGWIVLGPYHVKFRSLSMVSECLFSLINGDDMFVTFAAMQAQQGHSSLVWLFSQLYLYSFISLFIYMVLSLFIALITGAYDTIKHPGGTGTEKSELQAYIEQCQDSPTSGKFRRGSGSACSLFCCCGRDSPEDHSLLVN

Turning to `CCCCCCCC(=O)OC[C@H](COP(=O)(O)O[C@@H]1[C@H](O)[C@H](OP(=O)(O)O)[C@@H](O)[C@H](OP(=O)(O)O)[C@H]1O)OC(=O)CCCCCCC` [PI(3,5)P2 (diC8)], a half-maximal effect (EC50) was put at 48 ± 14 nM.
